Results: publication PMC6066186 (Angewandte Chemie (International ed. in English), 2018)
In brackets after ≈: the same amount, converted by molar mass.

Key:
[1] = test system: ATP production through oxidative phosphorylation in membrane vesicles derived from mycobacteria; test: NADH-initiated ATP synthesis in mycobacterial membrane vesicles; type: biochemical; conditions: read-out: IC50, inhibition of ATP synthesis, NADH added
Mtb [2] = test: Growth inhibition; type: cell-based, Mycobacterium tuberculosis
Mtb [3] = test: Combination with isoniazid, Mtb growth; type: cell-based, Mycobacterium tuberculosis; conditions: 250 nm, in the absence of TQZ
Mtb [4] = conditions: cited from earlier work
[5] = test system: NADH oxidation in purified membranes; conditions: cited from earlier work

COc1nc2ccc(Br)cc2cc1[C@@H](c1ccccc1)[C@@](O)(CCN(C)C)c1cccc2ccccc12 [bedaquiline]
IC50 [1]: 6.9 nM

O=C(CSc1nc2cccc(F)c2c(=O)[nH]1)NC1CCCCC1 [CBR-3465]
MIC (Mtb [2]): 0.16 µM (≈ 0.0537 µg/mL)

NNC(=O)c1ccncc1 [INH, isoniazid]
effect on Mtb replication (Mtb [3]): completely prevents replication

C=C(C)[C@H]1Cc2c(ccc3c2O[C@@H]2COc4cc(OC)c(OC)cc4[C@@H]2C3=O)O1 [rotenone]
effect on mycobacterial growth (Mtb [4]): little effect | effect on NADH oxidation [5]: little effect
